From patent US11998602B2, “Methods for promoting myelination and for treating demyelinating diseases” (The Scripps Research Institute, priority 2018, dated 2024)

Experiments:
[1] = system: Rat primary optic nerve OPCs; test: In vitro OPC differentiation assay, MBP expression by Western blot; assay type: cell-based; conditions: for Effect of supplementation on drug-induced OPC differentiation: added to drug-induced differentiation conditions; for Observed maximal in vitro efficacy of OPC differentiation compared to T3: drug alone
Procedure: Rat primary optic nerve OPCs were isolated by panning (>99% A2B5^+) and cultured in poly-D-lysine (10 μg/ml)-coated TC dishes in OPC culture media (Neurobasal Media, Invitrogen) supplemented with B27-without vitamin A (Invitrogen), 1× non-essential amino acids, 1× Glutamax, 1× anti-anti, β-mercaptoethanol and PDGF-AA (50 ng/ml; Peprotech) at 37° C. with 5% CO2. The culture medium was replaced every 48 h and cells were collected before the confluency reached 60% to maintain a naive state. For differentiation, OPCs were plated at 1 million cells in one 10 cm petri-dish filled with differentiation media, which is identical to the culture media, but with PDGF-AA at 2 ng/ml. T3 and DMSO were used as the positive control and negative control, respectively. Five replicates of cells were collected at different times (0, 3, and 6 days) for metabolomics studies.
Western blot analysis. OPCs were plated in basal differentiation medium at 1.7×10^5 cells/well and treated for 6 days with benztropine (0.5 μM), miconazole (2 μM) with and without the tested endogenous metabolites, T3 (1 μM) or DMSO. After washing with PBS, cells were collected in ice cold RIPA buffer containing protease and phosphatase inhibitors. Following incubation on ice for >20 min and sonication, lysed cells were centrifuged (16,000 g, 15 min at 4° C.). Total protein was quantified using a BCA analysis and 25 μg of protein from each sample was denatured by boiling with Bolt LDS Sample Buffer (4×) and Sample Reducing Agent (10×). Proteins were electrophoresed using Bolt 4-12% Bis-Tris gels (Life Technologies) and transferred to a PVDF membrane (Bio-Rad). The membrane was blocked with Odyssey PBS Blocking Buffer (LI-COR) and incubated overnight at 4° C. with anti-MBP (mouse, 1:2000) and anti-actin (mouse, 1:5000). Blots were incubated with […] secondary donkey anti-mouse antibody (LI-COR, 1:7500) and imaged using Odyssey CLx and Image Studio (LI-COR).

[2] = system: Rat primary optic nerve OPCs; test: High content imaging assay of OPC differentiation (MBP, A2B5, DAPI cell counts); assay type: cell-based
Procedure: Rat primary optic nerve OPCs were isolated by panning (>99% A2B5^+) and cultured in poly-D-lysine (10 μg/ml)-coated TC dishes in OPC culture media (Neurobasal Media, Invitrogen) supplemented with B27-without vitamin A (Invitrogen), 1× non-essential amino acids, 1× Glutamax, 1× anti-anti, β-mercaptoethanol and PDGF-AA (50 ng/ml; Peprotech) at 37° C. with 5% CO2. The culture medium was replaced every 48 h and cells were collected before the confluency reached 60% to maintain a naive state. For differentiation, OPCs were plated at 1 million cells in one 10 cm petri-dish filled with differentiation media, which is identical to the culture media, but with PDGF-AA at 2 ng/ml. T3 and DMSO were used as the positive control and negative control, respectively. Five replicates of cells were collected at different times (0, 3, and 6 days) for metabolomics studies. High content imaging. For dose-response co-treatment experiments, black, clear-bottom 384-well plates (Greiner) were coated with poly-D-lysine (10 μg ml^−1 in PBS). miconazole and benztropine were added at 8 doses in differentiation media; 3-fold dilutions down from 10 μM. taurine was then added at 8 concentrations; 3-fold dilutions down from 20 mM. This 384-well format was also utilized for experiments combining benztropine (0.5 μM), miconazole (2 μM) or T3 (1 μM) with propargylglycine (0.1, 3, 10, 30 μM), reduced glutathione (1, 10, 30, 100 μM) or ascorbic acid ([…]). OPCs were then seeded at a density of 1,000 cells per well, and the plates were incubated at 37° C. with 5% CO2 for 6 days. For time course experiments, cells were seeded at a density of 5,000 cells per well in poly-D-lysine-coated 96-well plates. Cells were treated with DMSO (0.1%), benztropine (0.5 μM), miconazole (2 μM) or T3 (1 μM) on day 0, and taurine (20 mM) was added in combination at 0, 1 or 3 days post-drug treatment. The plates were incubated at 37° C. with 5% CO2 for 6 days. On day 6, cells were then fixed for 20 min with 4% formaldehyde solution and stained with mouse anti-Myelin Basic Protein (MBP) antibody (MAB382, Millipore) or anti-A2B5 antibody (MAB312, Millipore) in 3% BSA, 0.3% Triton X-100 with overnight incubation at 4° C. The cells were washed and incubated with secondary antibody (goat anti-mouse Alexa Fluor488) and DAPI (Invitrogen) for 1 h at room temperature. The cells were washed and plates were sealed and imaged using an Opera confocal imaging reader (Perkin Elmer) or a Cellomics Cell Insight imaging reader (Thermo). An air ×10 lens was used to capture 9 images per well at both wavelengths (488 and 365 nm), with each image representing a different unique locations field in a single well. For image analysis, DAPI-stained nuclei and MBP-positive or A2B5-positive cell bodies were detected using an algorithm that selects for positive cell bodies and nuclei within a range of fluorescent emission values and sizes as determined by fitting parameters to positive (T3, 1 μM) and negative controls (DMSO, 0.1%). The numbers of DAPI-positive objects were enumerated in experiments where cell counts were required. Numerical results from the analyzed images were later exported for analysis using Excel (Microsoft) and/or Genedata software.

[3] = system: primary mouse cortical neurons co-cultured with OPCs; test: In vitro OL maturation assay, MBP-colocalization with co-cultured axons; assay type: cell-based, rat; conditions: 0.5 μM benztropine, 1.0 μM miconazole or 2 mM taurine alone, 14 days
Procedure: In vitro OL maturation assay. Cortical and hippocampal tissue was dissected from C57BL/6 mice at embryonic day 14 and dissociated in 0.5% Trypsin with 100 U/mL DNase I diluted in HBSS (+/+) for 10 min at 37° C. Reaction was stopped by supplementing to a final concentration of 10% v/v FBS, 100 μg/mL Soybean Trypsin Inhibitor and 10 U/mL DNase I. Cells were resuspended in plating media consisting of equal volumes of FCS, HBSS (+/+), High-Glucose DMEM with L-glutamine, and F-12 with L-glutamine, then plated onto acid pre-washed German glass coverslips coated with 50 μg/mL Poly-D-Lysine and 20 μg/mL Laminin at a density of 50,000 cells/cm^2. Cells were allowed to attach for 2 hrs and then coverslips were rinsed with PBS before being transferred to a 24-well plate containing 0.5 mL growth media consisting of: Neurobasal medium, B27 supplement (Gibco), 0.5× Glutamax (Thermo), 5 μg/mL gentamycin and 5 μM glutamic acid. Half of the cell media was replaced after 3 DIV with supplemental growth media not containing glutamic acid^47. After 5 DIV, rat-derived cortical OPCs were added to the neuronal culture at a density of 5,000 cells/cm^2. Co-culture media used to resuspend and plate OPCs consisting of a 1:3 mixture of neuronal growth supplement (as above) and oligodendrocyte differentiation media, containing DMEM/F-12 (with L-glutamine), insulin-free N2 supplement, 1× Glutamax, 1×MEM non-essential amino acids, 1× β-mercaptoethanol, 2 ng/mL PDGF and 5 μg/mL gentamycin. All drugs and taurine co-treatment were added once to culture upon plating of OPCs at the following concentrations: 0.5 μM benztropine, 1.0 μM miconazole, each with or without 2 mM taurine. Cultures were maintained by replacing half of the media every three days, maintaining an equivalent concentration of taurine throughout in appropriate wells. […] Co-localization was quantified within regions of interest delineated as the periphery of individual oligodendrocytes. The co-localization index (adapted from a previously described method^48) was calculated as total proportion of co-localized 3D surface area between Tuj1 (neuron) and oligodendrocyte (MBP) over total Tuj1 (neuronal process) area enclosed within each oligodendrocyte process tree as the selected region of interest (ROI, see FIG. 3B″). Mean colocalization values for each condition were normalized to the DMSO condition mean analyzed statistically using Prism software (GraphPad, v7) for two-way ANOVA comparisons (Drug Treatment×Taurine Supplement) with Tukey post-tests for statistical significance. […]

OPCs = test: Mitochondrial respiration assay (oxygen consumption rate, XFe96 Seahorse); assay type: cell-based, rat; conditions: miconazole treatment alone
Procedure: Mitochondrial respiration assay. Cellular oxygen consumption rate (OCR) was measured using an XFe96 extracellular flux analyzer (Seahorse Biosciences). OPCs were seeded at 40,000 cells/well in PLP-coated XFe96 plates and cultured for 6 days with taurine (2 and 20 mM) alone, or together with miconazole and benztropine. Cells were then incubated in assay medium (DMEM with 20 mM glucose, 5 mM pyruvate and 5 mM sodium bicarbonate, pH˜7.4) for at least 30 min prior to the assay. Media to deliver a final assay well concentration corresponding to of 1 μM oligomycin, 2 μM carbonyl cyanide 4-(trifluoromethoxy) phenylhydrazone (FCCP) and 2 μM rotenone+2 μM antimycin A were pre-loaded into the compound delivery ports of the system. The assay starts with the recording of the basal OCR, followed by recording of the OCR in response to different compounds that constitute the Mitochondria Stress Test (Seahorse Biosciences, Agilent). Once the basal OCR was measured, the compounds were added sequentially and the effects on OCR measured 3 times every 5 min. Oligomycin blocks ATP synthase; FCCP dissipates the inner membrane potential enabling maximum electron flux through the electron transport chain (ETC); rotenone+antimycin A inhibit complexes I and III, respectively, thereby blocking the entry of electrons in the ETC and shutting down mitochondrial activity.

## CN(CC(=O)O)C(=N)N [creatine]
[1]
  Effect of supplementation on drug-induced OPC differentiation: some additive effects

## reduced glutathione
[2]; 10 μM GSH, DMSO, day 6
  Differentiation efficiency (MBP-positive OLs) under basal conditions: no significant effect
[2]; 10 μM GSH, T3 (1 μM), day 6
  Observed total nuclei count in T3-induced differentiation: significantly enhance
  Overall efficiency of T3-induced differentiation: significantly enhance
[2]; reduced glutathione
  Impact on total cell number in benztropine- or miconazole-induced differentiation: not found to be significant
[2]; reduced glutathione, lesser extent than following taurine addition
  Overall efficiency of benztropine- or miconazole-induced differentiation: enhance

## CN1[C@@H]2CC[C@H]1C[C@@H](OC(c1ccccc1)c1ccccc1)C2 [benztropine, reference compound]
[1]
  Observed maximal in vitro efficacy of OPC differentiation compared to T3: suboptimal
[3]
  MBP-colocalization with axons, treatment alone vs. DMSO (Tukey post hoc): significant

## C#CCC(N)C(=O)O (stereo not shown) [PPG, propargylglycine]
[2]; PPG
  Impact on differentiation efficiency under basal vehicle treated conditions: virtually no impact
[2]; PPG 10 μM added at day 0 or day 3, all drug-induced conditions
  Observed efficacy of drug-induced differentiation: significantly enhance
[2]; PPG 10 μM, T3 1 μM
  Overall cell number with T3 treatment: enhance
[2]; PPG, DMSO, benztropine (0.5 μM) or miconazole (2 μM)
  Impact on overall survival in OPC cultures: not found to impact

## Clc1ccc(COC(Cn2ccnc2)c2ccc(Cl)cc2Cl)c(Cl)c1 (stereo not shown) [miconazole, reference compound]
[1]
  Observed maximal in vitro efficacy of OPC differentiation compared to T3: suboptimal
[3]
  MBP-colocalization with axons, treatment alone vs. DMSO (Tukey post hoc): no significant difference
OPCs
  Impact on OCR values compared to DMSO or benztropine treatment: negative impact

## CN(CC(=O)O)C(=N)NP(=O)(O)O [PCr, phosphocreatine]
[1]
  Effect of supplementation on drug-induced OPC differentiation: some additive effects
